Measured values taken from patent US20050176584A1, “Mehtod for high throughput screening of plant growth regulator” (Korea Research Institute of Bioscience and Biotechnology, priority 2002, published 2005).

How the values were obtained:
[1] = system: Marchantia polymorpha L. photomixotrophic cells; test: TTC high throughput screening of cell growth in microwell plate; format: cell-based; settings: for effect of natural compounds on cell growth, in words: 1 ppm; for growth inhibition activities (IC50) to Marchantia polymorpha L. photomixotrophic cells: TTC analysis
Lemna paucicostata = Lemna paucicostata growth inhibition in 24 well plate; settings: for inhibition at 31 ppm: Lemna aequinoctialis, 120 h, read-out: Lemna paucicostata (% activity)
[2] = system: Nicotiana tabacum cv. (BY4) photomixotrophic cells; test: TTC analysis of growth inhibition, tobacco photomixotrophic cells; format: cell-based
Experimental: As Nicotiana tabacum cv. (BY4) photomixotrophic cells, the cells developed as NaCl resistance cells by Cha et al. (Cha et al., Korean J Bot, -36: 113-120, 1993) were used. For the culture of the above cells, MS minimal medium where 0.7 mg/l of 2,4-D and 0.03 mg/l of kinetin were added was used. 2 g of Nicotiana tabacum cv. […] The cells were sub-cultured at intervals of 14 days. The investigation procedure of cell viability in a 96 microwell plate of the present invention is precisely explained as follows. 1) Treating 150 μl of TTC solution into each well wherein cells are being cultured. 2) Five hours after treating TTC, removing the solution in wells with a 8-channel multi-pipette. 3) Adding 150 μl of 95% ethanol to the remaining cells of each well, and then reacting thereof at 60° C. for 1 hour. 4) After reaction finished, transferring the reacting solution into a new 96 well plate. 5) Measuring the optical density of the well plate at 490 nm wave length with a high throughput screening (HTS) reader. The explained method of the present invention is called high throughput screening. […] Oryza sativa L. cv (Taebaegbyeo) heterotrophic cells used in this experiment were developed from premature embryo (Korean J Plant Tissue Culture, 18: 209-214, 1991).

[3] = system: Oryza sativa L. cv (Taebaegbyeo) heterotrophic cells; test: TTC analysis of growth inhibition, rice heterotrophic cells; format: cell-based; settings: for growth inhibition activities (IC50) to Oryza sativa L. cv (Taebaegbyeo) heterotrophic cells: TTC analysis; for growth inhibiting activity to non-photomixotrophic (heterotrophic) cells, in words: 10 ppm
Experimental: Other culture conditions were same as those for Marchantia polymorpha L. photomixotrophic cell culture. The investigation procedure of cell viability in a 96 microwell plate of the present invention is precisely explained as follows. 1) Treating 150 μl of TTC solution into each well wherein cells are being cultured. 2) Five hours after treating TTC, removing the solution in wells with a 8-channel multi-pipette. 3) Adding 150 μl of 95% ethanol to the remaining cells of each well, and then reacting thereof at 60° C. for 1 hour. 4) After reaction finished, transferring the reacting solution into a new 96 well plate. 5) Measuring the optical density of the well plate at 490 nm wave length with a high throughput screening (HTS) reader. The explained method of the present invention is called high throughput screening. […] Oryza sativa L. cv (Taebaegbyeo) heterotrophic cells used in this experiment were developed from premature embryo (Korean J Plant Tissue Culture, 18: 209-214, 1991).

[4] = Marchantia polymorpha, natural compounds, final concentration 1 ppm, + inhibiting, − promoting

Structure (SMILES) | inhibition at 1 ppm [1, 4] | inhibition at 31 ppm (Lemna paucicostata) | growth inhibition activities (IC50) to Marchantia polymorpha L. photomixotrophic cells ([1]; 96 well plate) | growth inhibition activities (IC50) to Nicotiana tabacum cv. (BY4) photomixotrophic cells [2] | growth inhibition activities (IC50) to Oryza sativa L. cv (Taebaegbyeo) heterotrophic cells [3] | also measured
O=C1COc2ccccc21 [3-Coumaranone] | -18% | 0% |  |  |  | effect of natural compounds on cell growth, in words [1]: growth promoting activity
CC(C)C1(C)N=C(c2ncccc2C(=O)O)NC1=O (stereo not shown) [Amazapyr] |  |  | 0.35 ppm | 0.018 ppm | 0.269 ppm | 
CCNc1nc(Cl)nc(NC(C)C)n1 [Atrazine] |  |  | 0.21 ppm | 0.18 ppm | >10 ppm | intracellular formazan content ([1]; 12 well plate, different concentrations, 1 and 5 hours after TTC): decreased dose-dependently; content that can inhibit cell growth upto about 50% ([1]; 96 well plate, TTC 5 hours): 0.18 ppm; IC50 ([1]; Marchantia polymorpha, 96 well plate, TTC 5 hours, read-out: content that can inhibit cell growth upto about 50%): 680 nM; growth inhibiting activity to non-photomixotrophic (heterotrophic) cells, in words [3]: low growth inhibiting activity or almost none
O=C(O)c1ccccc1 [Benzoic acid] |  | 10% |  |  |  | 
O=C(O)/C=C/c1ccc(O)c(O)c1 [Caffeic acid] | 21% | 30% |  |  |  | 
COc1cc(Oc2ccc(Cl)cc2Cl)ccc1[N+](=O)[O-] [Chloromethoxynil] |  |  | 0.076 ppm | 0.193 ppm | >10 ppm | growth inhibiting activity to non-photomixotrophic (heterotrophic) cells, in words [3]: low growth inhibiting activity or almost none
O=c1ccc2ccccc2o1 [Coumarin] | 33% | 80% |  |  |  | 
O=c1oc2ccccc2c(O)c1Cc1c(O)c2ccccc2oc1=O [Dicumarol] | -31% | 30% |  |  |  | effect of natural compounds on cell growth, in words [1]: growth promoting activity
O=C(Nc1ccc(F)cc1F)c1cccnc1Oc1cccc(C(F)(F)F)c1 [Diflufenican] |  |  | 0.031 ppm | 4.67 ppm | >10 ppm | growth inhibiting activity to non-photomixotrophic (heterotrophic) cells, in words [3]: low growth inhibiting activity or almost none
CSC(=O)c1c(C(F)F)nc(C(F)(F)F)c(C(=O)SC)c1CC(C)C [Dithiopyr] |  |  | 0.048 ppm | 0.141 ppm | 0.613 ppm | 
COc1cc(/C=C/C(=O)O)ccc1O [Ferulic acid] | -35% | 20% |  |  |  | effect of natural compounds on cell growth, in words [1]: growth promoting activity
O=C(O)c1cc(O)c(O)c(O)c1 [Gallic acid] | 8% | 0% |  |  |  | 
O=C(O)c1cc(O)ccc1O [Gentistic acid] |  |  |  |  |  | Marchantia polymorpha L. photomixotrophic cells (% activity) ([1]; natural compounds, final concentration 1 ppm, + inhibiting, − promoting): 9%; Lemna paucicostata (% activity) (Lemna paucicostata; final concentration 31 ppm, 5 days after treating): 0%
Oc1ccc(O)cc1 [Hydroquinone] | 15% | 0% |  |  |  | 
COCC(=O)OC(c1ncccc1S(=O)(=O)NC(=O)Nc1nc(OC)cc(OC)n1)C(C)F (stereo not shown) [LGC-42153] |  |  | 0.0011 ppm | 0.0022 ppm | 1.793 ppm | 
CON(C)C(=O)Nc1ccc(Cl)c(Cl)c1 [Linurone] |  |  | 0.244 ppm | >10 ppm | 7.07 ppm | 
CC(Oc1ccc2ccccc2c1)C(=O)Nc1ccccc1 (stereo not shown) [Naproanilide] |  |  | 0.054 ppm | 0.0019 ppm | 6.69 ppm | 
CC(C)Oc1cc(-n2nc(C(C)(C)C)oc2=O)c(Cl)cc1Cl [Oxadiazone] |  |  | 0.03 ppm | 0.39 ppm | 6.88 ppm | 
CCOC(=O)[C@@H](C)Oc1ccc(Oc2nc3ccc(Cl)cc3o2)cc1 [Phenoxapro-P-ethyl] |  |  | 0.70 ppm | 4.58 ppm | 6.47 ppm | 
CCOC(=O)c1cnn(C)c1S(=O)(=O)NC(=O)Nc1nc(OC)cc(OC)n1 [Prazolsulfuron-ethyl] |  |  | 0.0012 ppm | 0.001 ppm | 0.066 ppm | 
CCC(=O)Nc1ccc(Cl)c(Cl)c1 [Propanil] |  |  | 0.037 ppm | 5.83 ppm | 8.49 ppm | 
CCOC(=O)c1ccc(O)c(O)c1 [Protocatechuic acid ethyl ester] | 22% | 70% |  |  |  | 
COc1cc(OC)nc(Oc2cccc(Oc3nc(OC)cc(OC)n3)c2C(=O)ON=C(c2ccccc2)c2ccccc2)n1 [Pyribenzoxim] |  |  | 0.0092 ppm | 0.0026 ppm | 7.83 ppm | 
COc1cc2ccc(=O)oc2cc1O [Scopoletin] | 16% | 0% |  |  |  | 
COc1cc(C(=O)O)cc(OC)c1O [Syringic acid] | 16% | 0% |  |  |  | 
O=c1ccc2ccc(O)cc2o1 [Umbelliferone] | 6% | 40% |  |  |  | 
COc1cc(C(=O)O)ccc1O [Vanillic acid] | 10% | 10% |  |  |  | 
O=C(O)/C=C/c1ccccc1O [o-Coumaric acid] | 32% | 30% |  |  |  | 
O=C(O)/C=C/c1ccc(O)cc1 [p-Coumaric acid] | 17% | 30% |  |  |  | 
